Experimental data reported in patent US11459325B2, “Heterocyclic compound” (Takeda Pharmaceutical Company Limited, priority 2018, dated 2022).

tested on: GBA mutant human fibroblasts GM008760; assay: Glucosylceramide lowering assay; type: cell-based; settings: 10 μM test compound, 4 days culture; GlcCer (C16:0)/Cer (C16:0) molar ratio of test compound group relative to DMSO control group x100; smaller value = glucosylceramide lowering
Protocol: Glucosylceramide Lowering Assay
Using GBA mutant human fibroblasts containing mutated glucosylceramidase, the effect of test compounds on glucosylceramide reduction was evaluated.
GBA mutant human fibroblasts GM008760 (Coriel Institute) were seeded in a 96-well multiwell plate at a density of 5,000 cells/100 μL culture solution/well. GlutaMAX (Thermo Fishcer Scientific), penicillin-streptomycin, and Minimum Essential Media (Thermo Fishcer Scientific) supplemented with 15% fetal bovine serum were used as a culture solution. After culturing for 2 days, a 10 mM DMSO solution of the test compound diluted with the culture solution was added to a 96-well plate by 100 μL to adjust a final test compound concentration to 10 μM. After culturing the cells for 4 days in the presence of the test compound, the culture solution was removed, and the cells adhered to the 96-well plate were washed with a phosphate buffer (ThermoFisher Scientific, product number 14190-144). A solvent composed of 50% ethanol and 50% isopropanol was added to the 96-well plate by 100 μL, and the intracellular lipids were dissolved by pipetting. A solution prepared by dissolving N-Octadecanoyl-D35-psychosine (50 ng/mL, Matreya LLC Inc.) as an internal standard in 50% ethanol and 50% isopropanol was added to the sample in an equal volume, and 2.5 μL of the centrifuged supernatant was used as the test compound group.
In the same manner as above, a control group was prepared by using DMSO instead of the 10 mM DMSO solution of the test compound.
For the test compound group and the control group, molar concentrations of glucosylceramide [GlcCer (C16:0)] and ceramide [Cer (C16:0)] were quantified using Rapidfire-MS/MS (API-5000, Turbo-ESI, SRM), and the glucosylceramide lowering effect of the test compound group relative to the control group was evaluated by the following formula. (GlcCer/Cer of test compound group)/(GlcCer/Cer of control group)×100 wherein GlcCer/Cer is the ratio of the molar concentration of glucosylceramide to that of ceramide.
In this test, when the numerical value obtained by the above calculation formula is small, glucosylceramide is metabolized to ceramide by the test compound, or the synthesis of glucosylceramide from ceramide is inhibited by the test compound, that is, it can be said that the test compound has a glucosylceramide lowering effect.

With Cc1cn(C)c(=O)c2c(C(=O)N3CC4CC4(c4ccc(Cl)cc4)C3)cn(C)c12 (stereo not drawn) [Example 265, 3-((1-(4-chlorophenyl)-3-azabicyclo[3.1.0]hex-3-yl)carbonyl)-1,5,7-trimethyl-1,5-dihydro-4H-pyrrolo[3,2-c]pyridin-4-one] the “10 μM GlcCer/Cer (% of control)” value was 34 % of control.

same assay, conditions: Homo sapiens, Fibroblast, 96 h; 10 μM test compound, 4 days culture; GlcCer (C16:0)/Cer (C16:0) molar ratio of test compound group relative to DMSO control group x100; smaller value = glucosylceramide lowering

Going from Cc1cn(C)c(=O)c2c(C(=O)N3CC4CC4(c4ccc(OC(F)(F)F)c(F)c4)C3)cn(C)c12 (stereo not drawn) [Example 139, 3-((1-(3-fluoro-4-(trifluoromethoxy)phenyl)-3-azabicyclo[3.1.0]hex-3-yl)carbonyl)-1,5,7-trimethyl-1,5-dihydro-4H-pyrrolo[3,2-c]pyridin-4-one] to Cc1cn(C)c(=O)c2c(C(=O)N3CC4CC4(c4ccc(Cl)c(C(F)(F)F)c4)C3)cn(C)c12 (stereo not drawn) [Example 141, 3-((1-(4-chloro-3-(trifluoromethyl)phenyl)-3-azabicyclo[3.1.0]hex-3-yl)carbonyl)-1,5,7-trimethyl-1,5-dihydro-4H-pyrrolo[3,2-c]pyridin-4-one], the activity at 10 µM rises from 37% to 47%.

Going from Cc1cn(C)c(=O)c2c(C(=O)N3CC4CC4(c4cc(Cl)cc(C(F)(F)F)c4)C3)cn(C)c12 (stereo not drawn) [Example 140, 3-((1-(3-chloro-5-(trifluoromethyl)phenyl)-3-azabicyclo[3.1.0]hex-3-yl)carbonyl)-1,5,7-trimethyl-1,5-dihydro-4H-pyrrolo[3,2-c]pyridin-4-one] to Cc1cn(C)c(=O)c2c(C(=O)N3C[C@H]4C[C@@]4(c4ccc(Cl)c(Cl)c4)C3)cn(C)c12 [Example 205, 3-(((1R,5S)-1-(3,4-dichlorophenyl)-3-azabicyclo[3.1.0]hex-3-yl)carbonyl)-1,5,7-trimethyl-1,5-dihydro-4H-pyrrolo[3,2-c]pyridin-4-one], the activity at 10 µM rises from 49% to 62%.

First: Cc1ccc(C23CN(C(=O)c4cn(C)c5c(C)cn(C)c(=O)c45)CC2C3(F)F)cc1 (stereo not drawn) [Example 146, 3-((6,6-difluoro-1-(4-methylphenyl)-3-azabicyclo[3.1.0]hex-3-yl)carbonyl)-1,5,7-trimethyl-1,5-dihydro-4H-pyrrolo[3,2-c]pyridin-4-one]
Second: Cc1cn(C)c(=O)c2c(C(=O)N3CCC4(c5ccc(Cl)cc5)C(C3)C4(F)F)cn(C)c12 (stereo not drawn) [Example 153, 3-((6-(4-chlorophenyl)-7,7-difluoro-3-azabicyclo[4.1.0]hept-3-yl)carbonyl)-1,5,7-trimethyl-1,5-dihydro-4H-pyrrolo[3,2-c]pyridin-4-one]
The activity at 10 µM of the first is higher: 65% for the first, 60% for the second.

First: Cc1cn(C)c(=O)c2c(C(=O)N3CC4CC4(c4ccccc4OC(F)(F)F)C3)cn(C)c12 (stereo not drawn) [Example 151, 1,5,7-trimethyl-3-((1-(2-(trifluoromethoxy)phenyl)-3-azabicyclo[3.1.0]hex-3-yl)carbonyl)-1,5-dihydro-4H-pyrrolo[3,2-c]pyridin-4-one]
Second: Cc1cn(C)c(=O)c2c(C(=O)N3CC4CC4(c4cccc5ccccc45)C3)cn(C)c12 (stereo not drawn) [Example 262, 1,5,7-trimethyl-3-((1-(1-naphthyl)-3-azabicyclo[3.1.0]hex-3-yl)carbonyl)-1,5-dihydro-4H-pyrrolo[3,2-c]pyridin-4-one]
The activity at 10 µM of the first is lower: 46% for the first, 51% for the second.

First: Cc1cn(C)c(=O)c2c(C(=O)N3CCC4(c5cccc(Cl)c5)C(C3)C4(F)F)cn(C)c12 (stereo not drawn) [Example 155, 3-((6-(3-chlorophenyl)-7,7-difluoro-3-azabicyclo[4.1.0]hept-3-yl)carbonyl)-1,5,7-trimethyl-1,5-dihydro-4H-pyrrolo[3,2-c]pyridin-4-one]
Second: Cc1cn(C)c(=O)c2c(C(=O)N3CCC(F)(c4ccc(Cl)cc4)C3)cn(C)c12 (stereo not drawn) [Example 168, 3-((3-(4-chlorophenyl)-3-fluoropyrrolidin-1-yl)carbonyl)-1,5,7-trimethyl-1,5-dihydro-4H-pyrrolo[3,2-c]pyridin-4-one]
The activity at 10 µM of the first is higher: 53% for the first, 40% for the second.

First: Cc1cn(C)c(=O)c2c(C(=O)N3CCC(Oc4cccc(C(F)(F)F)c4)CC3)cn(C)c12 [Example 176, 1,5,7-trimethyl-3-((4-(3-(trifluoromethyl)phenoxy)piperidin-1-yl)carbonyl)-1,5-dihydro-4H-pyrrolo[3,2-c]pyridin-4-one]
Second: Cc1cn(C)c(=O)c2c(C(=O)N3CCC(Oc4ccc(C(F)(F)F)cc4)CC3)cn(C)c12 [Example 190, 1,5,7-trimethyl-3-((4-(4-(trifluoromethyl)phenoxy)piperidin-1-yl)carbonyl)-1,5-dihydro-4H-pyrrolo[3,2-c]pyridin-4-one]
The activity at 10 µM of the first is higher: 56% for the first, 29% for the second.

First: Cc1cn(C)c(=O)c2c(C(=O)N3CCC(Oc4ccc(Cl)c(Cl)c4)CC3)cn(C)c12 [Example 178, 3-((4-(3,4-dichlorophenoxy)piperidin-1-yl)carbonyl)-1,5,7-trimethyl-1,5-dihydro-4H-pyrrolo[3,2-c]pyridin-4-one]
Second: Cc1cn(C)c(=O)c2c(C(=O)N3CCC(Oc4cccc(Cl)c4)CC3)cn(C)c12 [Example 188, 3-((4-(3-chlorophenoxy)piperidin-1-yl)carbonyl)-1,5,7-trimethyl-1,5-dihydro-4H-pyrrolo[3,2-c]pyridin-4-one]
The activity at 10 µM of the first is lower: 42% for the first, 65% for the second.

First: Cc1cn(C)c(=O)c2c(C(=O)N3CCC(Oc4ccc(Cl)cc4)CC3)cn(C)c12 [Example 189, 3-((4-(4-chlorophenoxy)piperidin-1-yl)carbonyl)-1,5,7-trimethyl-1,5-dihydro-4H-pyrrolo[3,2-c]pyridin-4-one]
Second: Cc1cn(C)c(=O)c2c(C(=O)N3CCC(c4ccc(Cl)cc4)CC3)cn(C)c12 [Example 258, 3-((4-(4-chlorophenyl)piperidin-1-yl)carbonyl)-1,5,7-trimethyl-1,5-dihydro-4H-pyrrolo[3,2-c]pyridin-4-one]
The activity at 10 µM of the first is lower: 36% for the first, 64% for the second.

Compared with Cc1cn(C)c(=O)c2c(C(=O)N3C[C@@H]4C[C@]4(c4ccc(Cl)c(Cl)c4)C3)cn(C)c12 [Example 206, 3-(((1S,5R)-1-(3,4-dichlorophenyl)-3-azabicyclo[3.1.0]hex-3-yl)carbonyl)-1,5,7-trimethyl-1,5-dihydro-4H-pyrrolo[3,2-c]pyridin-4-one], Cc1cn(C)c(=O)c2c(C(=O)N3CC4CC4(c4ccc5ccccc5c4)C3)cn(C)c12 (stereo not drawn) [Example 261, 1,5,7-trimethyl-3-((1-(2-naphthyl)-3-azabicyclo[3.1.0]hex-3-yl)carbonyl)-1,5-dihydro-4H-pyrrolo[3,2-c]pyridin-4-one] is higher in activity at 10 µM: 49% for the first, 65% for the second.

Compared with Cc1cn(C)c(=O)c2c(C(=O)NCc3ccc(-c4ccc(Cl)cc4)s3)cn(C)c12 [Example 217, N-((5-(4-chlorophenyl)-2-thienyl)methyl)-1,5,7-trimethyl-4-oxo-4,5-dihydro-1H-pyrrolo[3,2-c]pyridine-3-carboxamide], Cc1cn(C)c(=O)c2c(C(=O)NC(C)(C)c3ccc(Cl)cc3)cn(C)c12 [Example 221, N-(2-(4-chlorophenyl)propan-2-yl)-1,5,7-trimethyl-4-oxo-4,5-dihydro-1H-pyrrolo[3,2-c]pyridine-3-carboxamide] is lower in activity at 10 µM: 64% for the first, 44% for the second.

Going from Cc1cn(C)c(=O)c2c(C(=O)NC(C)(C)c3ccccc3)cn(C)c12 [Example 219, 1,5,7-trimethyl-4-oxo-N-(2-phenylpropan-2-yl)-4,5-dihydro-1H-pyrrolo[3,2-c]pyridine-3-carboxamide] to Cc1cn(C)c(=O)c2c(C(=O)Nc3cccc(OCc4ccccc4)c3)cn(C)c12 [Example 231, N-(3-(benzyloxy)phenyl)-1,5,7-trimethyl-4-oxo-4,5-dihydro-1H-pyrrolo[3,2-c]pyridine-3-carboxamide], the activity at 10 µM falls from 63% to 59%.

First: Cc1cn(C)c(=O)c2c(C(=O)NC3(c4cccc(Cl)c4)CCC3)cn(C)c12 [Example 227, N-(1-(3-chlorophenyl)cyclobutyl)-1,5,7-trimethyl-4-oxo-4,5-dihydro-1H-pyrrolo[3,2-c]pyridine-3-carboxamide]
Second: Cc1cn(C)c(=O)c2c(C(=O)NC3(c4ccc(Cl)cc4)CCC3)cn(C)c12 [Example 228, N-(1-(4-chlorophenyl)cyclobutyl)-1,5,7-trimethyl-4-oxo-4,5-dihydro-1H-pyrrolo[3,2-c]pyridine-3-carboxamide]
The activity at 10 µM of the first is higher: 59% for the first, 43% for the second.

Compared with CCCCO[C@H]1CC[C@H](NC(=O)c2nn(C)c3c(C)cn(C)c(=O)c23)CC1 [Example 277, N-(trans-4-butoxycyclohexyl)-1,5,7-trimethyl-4-oxo-4,5-dihydro-1H-pyrazolo[4,3-c]pyridine-3-carboxamide], Cc1cn(C)c(=O)c2c(C(=O)Nc3ccccc3OCc3ccccc3)n(C)nc12 [Example 282, N-(2-(benzyloxy)phenyl)-2,5,7-trimethyl-4-oxo-4,5-dihydro-2H-pyrazolo[4,3-c]pyridine-3-carboxamide] is lower in activity at 10 µM: 77% for the first, 66% for the second.
